In test [1] the test system is MRSA. The conditions noted are these: cited from earlier work.
Test [2] deals with MRSA. The test can be described thus: In vitro biofilm formation by biofilm producing MRSA strains challenged with Mupirocin, with or without NIMELS infrared light. The class given is cell-based, methicillin resistant Staphylococcus aureus. An excerpt: The applicant tested the effect in vitro against MRSA with the topical drug Mupirocin.
Accordingly, the PMBIC for MRSA challenged with Mupirocin was established using a straightforward testing protocol.

In a further test the test system is S. aureus. The conditions noted are these: cited from earlier work.
Test [3] concerns MRSA. The conditions noted are these: of 38 patients, topical mupirocin; cited from earlier work.

Read-outs that look alike come from different tables or passages of the source.

For `C/C(=C\C(=O)OCCCCCCCCC(=O)O)C[C@@H]1OC[C@H](C[C@@H]2O[C@H]2[C@@H](C)[C@H](C)O)[C@@H](O)[C@H]1O` [Mupirocin], the figures for the MIC in the test on MRSA [1] (17 failed samples that were biofilm producing strains) and in the test with MRSA [1] (MRSA samples of the 14 patients with successful eradication) were no more than 2 µg/mL and no more than 1 µg/mL, respectively. Also, the “prevention of biofilm formation” value in the test on MRSA [2] (drug treatment alone, in vitro, biofilm producing MRSA strain (FIG. 9 left panel)) was “not effective in preventing biofilm formation”. For the same molecule, in the test on MRSA [2] (sub-lethal NIMELS infrared light doses (870/930 nm, Table I) applied prior to drug, two different samples of MRSA (FIG. 9 right panel, FIG. 10)), the “inhibition of biofilm production” value was “did in fact inhibit biofilm production”. In the test with S. aureus (applied 15 minutes after inoculation (representing planktonic bacteria)), the “effect on planktonic bacteria” value is “reduced planktonic bacteria”. Also, in the test on S. aureus (applied 48 hours after inoculation (representing biofilm bacteria)), the “effect on biofilm bacteria” value is “decreased efficacy on S. aureus biofilms”. For the same molecule, the “patients successfully eradicated of their MRSA” value in the test on MRSA [3] is 14.

The values above are taken from US10702706B2, “Apparatus, system, and method for generating photo-biologic minimum biofilm inhibitory concentration of infrared light” (NOMIR MEDICAL TECHNOLOGIES, INC., priority 2013, dated 2020).
